Measurements from patent US20100078393A1, “BIOCIDAL COMPOSITIONS AND METHODS OF USE” (priority 2008, published 2010).

What was measured:
[1] = system: Bacillus subtillus ATCC 8473; assay: Biocidal efficacy against aerobic bacteria, log reduction after 1 hour at 37° C.; type: cell-based; details: for Concentration required to achieve 3 log bacterial reduction in 1 hour, used in combination: active weight ratio 1:6; for Concentration required to achieve 3 log bacterial reduction in 1 hour, used alone: ppm active
Experimental: (§1) The synergy indexes reported in the following examples are calculated using the following equation:
(§2) Synergy Index=Ca/CA+Cb/CB
(§3) A synergy index (SI) of 1 indicates additivity, a synergy index of less than 1 indicates synergy, and a synergy index greater than 1 indicates antagonism.
(§4) Various methods known to those skilled in the art can be used for evaluating biocidal efficacy. In some of the examples below, a serial dilution technique is used, which determines viable bacteria remaining after a treatment regimen. The method is based or adapted (e.g., for high temperature testing or for the presence of sulfide) from the methodology described in inventor's pending international application PCT/US08/075755, filed Sep. 10, 2008, which is incorporated herein by reference.
(§5) A sterile NaCl solution (0.85%) is contaminated with bacterial inoculums at final bacterial concentration of approximately 10^6 CFU/ml. Then, biocide solution (single or in combination) is added into the bacterial suspension at various concentrations and immediately mixed well. After the mixtures are incubated at 37° C. for 1 hour, the viable bacteria left in the solution are determined. Bacterial log reduction is then calculated.

[2] = system: Enterobacter aerogenes ATCC 13048; assay: as above; type: cell-based; details: for Concentration required to achieve 3 log bacterial reduction in 1 hour, used in combination: active weight ratio 1:6; for Concentration required to achieve 3 log bacterial reduction in 1 hour, used alone: ppm active
Experimental: as §1, §2, §3, §4, §5

[3] = system: Escherichia coli ATCC 11229; assay: as above; type: cell-based; details: for Concentration required to achieve 3 log bacterial reduction in 1 hour, used in combination: active weight ratio 1:6; for Concentration required to achieve 3 log bacterial reduction in 1 hour, used alone: ppm active
Experimental: as §1, §2, §3, §4, §5

[4] = system: Klebsiella pneumoniae ATCC 8308; assay: as above; type: cell-based; details: for Concentration required to achieve 3 log bacterial reduction in 1 hour, used in combination: active weight ratio 1:6; for Concentration required to achieve 3 log bacterial reduction in 1 hour, used alone: ppm active
Experimental: as §1, §2, §3, §4, §5

[5] = system: Pseudomonas aeruginosa ATCC 10145; assay: as above; type: cell-based; details: for Concentration required to achieve 3 log bacterial reduction in 1 hour, used in combination: active weight ratio 1:6; for Concentration required to achieve 3 log bacterial reduction in 1 hour, used alone: ppm active
Experimental: as §1, §2, §3, §4, §5

[6] = system: Pseudomonas putida ATCC 49128; assay: as above; type: cell-based; details: for Concentration required to achieve 3 log bacterial reduction in 1 hour, used in combination: active weight ratio 1:6; for Concentration required to achieve 3 log bacterial reduction in 1 hour, used alone: ppm active
Experimental: as §1, §2, §3, §4, §5

[7] = system: Staphylococcus aureus ATCC 6538; assay: as above; type: cell-based; details: for Concentration required to achieve 3 log bacterial reduction in 1 hour, used in combination: active weight ratio 1:6; for Concentration required to achieve 3 log bacterial reduction in 1 hour, used alone: ppm active
Experimental: as §1, §2, §3, §4, §5

[8] = system: oil field isolated anaerobic SRB consortium; assay: Biocidal efficacy against anaerobic SRB at 40° C., serial dilution method; type: cell-based, sulfate-reducing bacteria (SRB); details: for Concentration required for complete bacterial kill in 1 hour, used alone / Concentration required for 3 log bacterial kill in 2 hours, used alone: ppm active; for Concentration required for complete bacterial kill in 1 hour, used alone: 40° C.; for Concentration required for 3 log bacterial kill in 2 hours, used in combination: concentration of the labelled component
Experimental: as §1, §2, §3, §4
Inside an anaerobic chamber (Bactron III), a deaerated sterile salt solution (3.1183 g of NaCl, 1.3082 mg of NaHCO3, 47.70 mg of KCl, 72.00 mg of CaCl2, 54.49 mg of MgSO4, 172.28 mg of Na2SO4, 43.92 mg of Na2CO3 in 1 L water) is contaminated with an oil field isolated anaerobic SRB consortium at final bacterial concentrations of about 10^7 CFU/mL. […] […] Bacterial log reduction is then calculated.

[9] = concentration of the labelled component in glutaraldehyde + 4,4-dimethyl-oxazolidine combination
[10] = concentration of the labelled component in glutaraldehyde + 7-ethyl-bicyclooxazolidine combination

CC1(C)COCN1 [4,4-dimethyl-oxazolidine]
Concentration required to achieve 3 log bacterial reduction in 1 hour, used in combination [1, 9]: 111.3 ppm | Concentration required to achieve 3 log bacterial reduction in 1 hour, used alone [1]: 296.6 ppm | Concentration required to achieve 3 log bacterial reduction in 1 hour, used in combination [2, 9]: 111.3 ppm | Concentration required to achieve 3 log bacterial reduction in 1 hour, used alone [2]: 296.6 ppm | Concentration required to achieve 3 log bacterial reduction in 1 hour, used in combination [3, 9]: 111.3 ppm | Concentration required to achieve 3 log bacterial reduction in 1 hour, used alone [3]: 197.8 ppm | Concentration required to achieve 3 log bacterial reduction in 1 hour, used in combination [4, 9]: 74.2 ppm | Concentration required to achieve 3 log bacterial reduction in 1 hour, used alone [4]: 197.8 ppm | Concentration required to achieve 3 log bacterial reduction in 1 hour, used in combination [5, 9]: 111.3 ppm | Concentration required to achieve 3 log bacterial reduction in 1 hour, used alone [5]: 296.6 ppm | Concentration required to achieve 3 log bacterial reduction in 1 hour, used in combination [6, 9]: 111.3 ppm | Concentration required to achieve 3 log bacterial reduction in 1 hour, used alone [6]: 296.6 ppm | Concentration required to achieve 3 log bacterial reduction in 1 hour, used in combination [7, 9]: 111.3 ppm | Concentration required to achieve 3 log bacterial reduction in 1 hour, used alone [7]: 296.6 ppm | Concentration required for complete bacterial kill in 1 hour, used alone [8]: >1600.0 ppm

CCC12COCN1COC2 [7-ethyl-bicyclooxazolidine, 5-ethyl-1-aza-3,7-dioxabicyclo[3.3.0]octane]
Concentration required to achieve 3 log bacterial reduction in 1 hour, used in combination [1, 10]: 74.2 ppm | Concentration required to achieve 3 log bacterial reduction in 1 hour, used alone [1]: 296.6 ppm | Concentration required to achieve 3 log bacterial reduction in 1 hour, used in combination [2, 10]: 111.3 ppm | Concentration required to achieve 3 log bacterial reduction in 1 hour, used alone [2]: 296.6 ppm | Concentration required to achieve 3 log bacterial reduction in 1 hour, used in combination [3, 10]: 74.2 ppm | Concentration required to achieve 3 log bacterial reduction in 1 hour, used alone [3]: 296.6 ppm | Concentration required to achieve 3 log bacterial reduction in 1 hour, used in combination [4, 10]: 74.2 ppm | Concentration required to achieve 3 log bacterial reduction in 1 hour, used alone [4]: 197.8 ppm | Concentration required to achieve 3 log bacterial reduction in 1 hour, used in combination [5, 10]: 111.3 ppm | Concentration required to achieve 3 log bacterial reduction in 1 hour, used alone [5]: 296.6 ppm | Concentration required to achieve 3 log bacterial reduction in 1 hour, used in combination [6, 10]: 111.3 ppm | Concentration required to achieve 3 log bacterial reduction in 1 hour, used alone [6]: 296.6 ppm | Concentration required to achieve 3 log bacterial reduction in 1 hour, used in combination [7, 10]: 111.3 ppm | Concentration required to achieve 3 log bacterial reduction in 1 hour, used alone [7]: 296.6 ppm | Concentration required for 3 log bacterial kill in 2 hours, used in combination ([8]; glutaraldehyde:7-ethyl-bicyclooxazolidine weight ratio 1:1): 5.9 ppm | Concentration required for 3 log bacterial kill in 2 hours, used in combination ([8]; glutaraldehyde:7-ethyl-bicyclooxazolidine weight ratio 1:2): 11.9 ppm | Concentration required for 3 log bacterial kill in 2 hours, used in combination ([8]; glutaraldehyde:7-ethyl-bicyclooxazolidine weight ratio 1:5): 29.6 ppm | Concentration required for 3 log bacterial kill in 2 hours, used in combination ([8]; glutaraldehyde:7-ethyl-bicyclooxazolidine weight ratio 1:10): 39.5 ppm | Concentration required for 3 log bacterial kill in 2 hours, used in combination ([8]; glutaraldehyde:7-ethyl-bicyclooxazolidine weight ratio 1:20): 52.7 ppm | Concentration required for 3 log bacterial kill in 2 hours, used in combination ([8]; glutaraldehyde:7-ethyl-bicyclooxazolidine weight ratio 2:1): 4.4 ppm | Concentration required for 3 log bacterial kill in 2 hours, used in combination ([8]; glutaraldehyde:7-ethyl-bicyclooxazolidine weight ratio 5:1): 1.2 ppm | Concentration required for 3 log bacterial kill in 2 hours, used in combination ([8]; glutaraldehyde:7-ethyl-bicyclooxazolidine weight ratio 10:1): 0.6 ppm | Concentration required for 3 log bacterial kill in 2 hours, used in combination ([8]; glutaraldehyde:7-ethyl-bicyclooxazolidine weight ratio 20:1): 0.3 ppm | Concentration required for 3 log bacterial kill in 2 hours, used alone [8]: >2025 ppm

O=CCCCC=O [Glutaraldehyde]
Concentration required to achieve 3 log bacterial reduction in 1 hour, used in combination [1, 9]: 18.6 ppm | Concentration required to achieve 3 log bacterial reduction in 1 hour, used in combination [1, 10]: 12.4 ppm | Concentration required to achieve 3 log bacterial reduction in 1 hour, used alone [1]: 44.5 ppm | Concentration required to achieve 3 log bacterial reduction in 1 hour, used in combination [2, 9]: 18.6 ppm | Concentration required to achieve 3 log bacterial reduction in 1 hour, used in combination [2, 10]: 18.6 ppm | Concentration required to achieve 3 log bacterial reduction in 1 hour, used alone [2]: 44.5 ppm | Concentration required to achieve 3 log bacterial reduction in 1 hour, used in combination [3, 9]: 18.6 ppm | Concentration required to achieve 3 log bacterial reduction in 1 hour, used in combination [3, 10]: 12.4 ppm | Concentration required to achieve 3 log bacterial reduction in 1 hour, used alone [3]: 44.5 ppm | Concentration required to achieve 3 log bacterial reduction in 1 hour, used in combination [4, 9]: 12.4 ppm | Concentration required to achieve 3 log bacterial reduction in 1 hour, used in combination [4, 10]: 12.4 ppm | Concentration required to achieve 3 log bacterial reduction in 1 hour, used alone [4]: 44.5 ppm | Concentration required to achieve 3 log bacterial reduction in 1 hour, used in combination [5, 9]: 18.6 ppm | Concentration required to achieve 3 log bacterial reduction in 1 hour, used in combination [5, 10]: 18.6 ppm | Concentration required to achieve 3 log bacterial reduction in 1 hour, used alone [5]: 44.5 ppm | Concentration required to achieve 3 log bacterial reduction in 1 hour, used in combination [6, 9]: 18.6 ppm | Concentration required to achieve 3 log bacterial reduction in 1 hour, used in combination [6, 10]: 18.6 ppm | Concentration required to achieve 3 log bacterial reduction in 1 hour, used alone [6]: 44.5 ppm | Concentration required to achieve 3 log bacterial reduction in 1 hour, used in combination [7, 9]: 18.6 ppm | Concentration required to achieve 3 log bacterial reduction in 1 hour, used in combination [7, 10]: 18.6 ppm | Concentration required to achieve 3 log bacterial reduction in 1 hour, used alone [7]: 44.5 ppm | Concentration required for 3 log bacterial kill in 2 hours, used alone [8]: 8.9 ppm | Concentration required for complete bacterial kill in 1 hour, used alone [8]: 26.3 ppm
